Tests used:
histamine H4 receptor [1] = target: T1, histamine H4 receptor (Homo sapiens, UniProt Q9H3N8); experiment: [3H]-histamine competition binding assay, membranes of HEK-293 cells transfected with histamine H4 receptor; conditions: displacing 3H-histamine; Ki by Cheng-Prusoff equation; read-out: Potency
T1 construct: expressed in transfected cells
Description: The potency of compounds of the invention in displacing ^3H-histamine in competition binding assays is assessed by methods described in Esbenshade, et al., Biochemical Pharmacology (2004), vol. 68, pp. 933-945. In this assay, membranes were prepared from HEK-293 cells transiently transfected with the pCINeo expression vector harboring the histamine H4 receptor by homogenization of the cells on ice in TE buffer (50 mM Tris-HCl buffer, pH 7.4, containing 5 mM EDTA), 1 mM benzamidine, 2 μg/mL aprotinin, 1 μg/mL leupeptin, and 1 μg/mL pepstatin. The homogenate was centrifuged at 40,000 g for 20 minutes at 4° C. This step was repeated, and the resulting pellet was resuspended in TE buffer. Aliquots were frozen at −70° C. until needed. On the day of assay, membranes were thawed and diluted with TE buffer. Competition radioligand binding assays were performed with increasing concentrations of test compound in the presence of [^3H]-histamine incubated at 25° C. for 1 hour in a total volume of 0.5 mL of 50 mM Tris, 5 mM EDTA, pH 7.4. All binding reactions were terminated by filtration under vacuum onto polyethylenimine (0.3%) presoaked Unifilters (PerkinElmer Life Sciences) or Whatman GF/B filters (Whatman, Clifton, N.J.) followed by three brief washes with 4 mL of ice-cold TE buffer. Bound radiolabel was determined by liquid scintillation counting. For all of the radioligand competition binding assays, IC50 values and Hill slopes were determined by Hill transformation of the data and Ki values were determined by the Cheng-Prusoff equation. The following table of representative histamine H4 receptor ligands is provided, along with potency values: […]

histamine H4 receptor [2] = target: T1, histamine H4 receptor; experiment: In vitro histamine H4 potency in FLIPR (Ca2+ flux, HEK-293 cells coexpressing Gαqi5); type: cell-based; conditions: for Potency: Kb values for antagonists and inverse agonists, block of histamine-induced fluorescence
Text: There are many methods available to show the effectiveness of compounds as histamine H4 receptor ligands. Histamine H4 receptors from mammalian species have been cloned. Methods to clone, express, and assess the potency and functional activity of such cloned genes are well known to those skilled in the art of molecular biology. Examples of methods of cloning and expressing histamine H4 receptors, and of assessing the potency and functional activity are described in Nguyen, et al. Molecular Pharmacology (2001) vol. 59 pp. 427-433; Zhu, et al. Molecular Pharmacology (2001) vol. 59 pp. 434-441; Coge, et al., Biochemical and Biophysical Research Communications (2001) vol. 284, pp. 301-309; Liu, et al. Molecular Pharmacology (2001) vol. 59 pp. 420-426; Liu, et al. Journal of Pharmacology and Experimental Therapeutics (2001) v. 299, pp. 121-130; and Thurmond, et al. Journal of Pharmacology and Experimental Therapeutics (2004) v. 309, pp. 404-413. In the present case, to determine the potency and effectiveness of representative compounds of this invention as histamine-H4 receptor ligands (H4 receptor ligands), the following tests were conducted according to previously described methods (see Esbenshade, et al., Biochemical Pharmacology (2004), vol. 68, pp. 933-945, and in Krueger, et al., Journal of Pharmacology and Experimental Therapeutics (2005) v. 314, pp. 271-281): histamine H4 receptors were cloned and stably expressed in HEK-293 (human embryonic kidney) cells coexpressing a Gαqi5. Before testing, cells are loaded with a Ca^+2 sensitive fluorescent dye, in this case Fluo-4 (Invitrogen, Carlsbad, Calif.). In the case of partial agonist or agonist ligands, addition of compound to the cells leads to the increase in intracellular Ca^+2 which is detected by FLIPR (Fluorescence Imaging Plate Reader; Molecular Devices, Sunnyvale, Calif.) technology. In a similar manner, compounds that are antagonists or inverse agonists, block the increase in fluorescence induced by the full histamine H4 agonist histamine, and partial agonists reduce the amount of fluorescence induced by the full histamine H4 agonist histamine. The fluorescence intensities measured before addition of the test compound are subtracted from the fluorescence intensities at later time points. Peak response values determined at each concentration of ligand are expressed as a percentage of the response obtained with the full agonist histamine. Concentration versus response data are analyzed to obtain compound potency as Kb values for antagonists and inverse agonists and as EC50 values for partial agonists.

SMILES	Ki (histamine H4 receptor [1])	Potency (histamine H4 receptor [2])	EC50 (histamine H4 receptor [2]; EC50 values for partial agonists)
Nc1nccc(NCCNc2cc(-c3cccc(Cl)c3)nc(N)n2)n1 [Example 6, N^4-{2-[(2-aminopyrimidin-4-yl)amino]ethyl}-6-(3-chlorophenyl)pyrimidine-2,4-diamine]	6.6 nM	2.5 nM	
Nc1nccc(NCCCNc2nc(N)nc3c2CCCc2ccccc2-3)n1 [Example 3, N^4-{3-[(2-aminopyrimidin-4-yl)amino]propyl}-6,7-dihydro-5H-benzo[6,7]cyclohepta[1,2-d]pyrimidine-2,4-diamine]		309 nM	
Nc1nccc(NCCNc2cc(-c3ccccc3)nc(N)n2)n1 [Example 5, N^4-{2-[(2-aminopyrimidin-4-yl)amino]ethyl}-6-phenylpyrimidine-2,4-diamine]		8.7 nM	
Nc1ccnc(NCCNc2nc(N)nc3c2CCCc2ccccc2-3)n1 [Example 4, N^4-{2-[(4-aminopyrimidin-2-yl)amino]ethyl}-6,7-dihydro-5H-benzo[6,7]cyclohepta[1,2-d]pyrimidine-2,4-diamine]		1349 nM	
Nc1nccc(NCCNc2cc(-c3cc(Cl)cc(Cl)c3)nc(N)n2)n1 [Example 7, N^4-{2-[(2-aminopyrimidin-4-yl)amino]ethyl}-6-(3,5-dichlorophenyl)pyrimidine-2,4-diamine]		69 nM	
CN(CCNc1ccnc(N)n1)c1nc(N)nc2c1CCCc1ccccc1-2 [Example 2, N^4-{2-[(2-aminopyrimidin-4-yl)amino]ethyl}-N^4-methyl-6,7-dihydro-5H-benzo[6,7]cyclohepta[1,2-d]pyrimidine-2,4-diamine]	3.5 nM	25 nM	
Nc1nccc(NCCNc2nc(N)nc3c2CCCc2ccccc2-3)n1 [Example 1, N^4-{2-[(2-aminopyrimidin-4-yl)amino]ethyl}-6,7-dihydro-5H-benzo[6,7]cyclohepta[1,2-d]pyrimidine-2,4-diamine]		204 nM	

Continued, values first:

Ki (histamine H4 receptor [1])	Potency (histamine H4 receptor [2])	EC50 (histamine H4 receptor [2]; EC50 values for partial agonists)	SMILES
7.4 nM	32 nM		Nc1nccc(NCCNc2nc(N)nc3c2CCCC32CCCC2)n1 [Example 10, N^4′-{2-[(2-aminopyrimidin-4-yl)amino]ethyl}-6′,7′-dihydro-5′H-spiro[cyclopentane-1,8′-quinazoline]-2′,4′-diamine]
	589 nM		COc1ccc(Cl)cc1-c1cc(NCCNc2ccnc(N)n2)nc(N)n1 [Example 8, N^4-{2-[(2-aminopyrimidin-4-yl)amino]ethyl}-6-(5-chloro-2-methoxyphenyl)pyrimidine-2,4-diamine]
20 nM	85 nM		Nc1nccc(NCCNc2cc(/C=C/c3ccccc3)nc(N)n2)n1 [Example 9, N^4-{2-[(2-aminopyrimidin-4-yl)amino]ethyl}-6-[(E)-2-phenylvinyl]pyrimidine-2,4-diamine]
		2340 nM	Nc1nccc(NCCNc2nc(N)nc3c2CCCC(c2ccccc2)C3)n1 (stereo not shown) [Example 11, N^4-{2-[(2-aminopyrimidin-4-yl)amino]ethyl}-8-phenyl-6,7,8,9-tetrahydro-5H-cyclohepta[d]pyrimidine-2,4-diamine]
	2089 nM		Nc1nccc(NCCNc2ncnc3c2oc2ccccc23)n1 [Example 12, N^4-[2-([1]benzofuro[3,2-d]pyrimidin-4-ylamino)ethyl]pyrimidine-2,4-diamine]

Reference: patent publication US8268846B2, “Amino heterocyclic linked pyrimidine derivatives” (Abbott Laboratories, priority 2008, dated 2012)
